Tests used:
bedstraw = assay: Test B pre/postemergence bedstraw; type: in vivo, Galium aparine
Procedure, shortened: (§1)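 Response is a visual 0-to-10 score relative to untreated plants, where 0 means no effect and 10 means complete control, taken twelve to sixteen days after application. Treatments went onto soil at planting and onto foliage of 1- to 4-leaf plants, using a surfactant-containing non-phytotoxic solvent.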

blackgrass = assay: Test B pre/postemergence blackgrass; type: in vivo, Alopecurus myosuroides
Procedure, shortened: as §1

surinam grass = assay: Test B pre/postemergence surinam grass; type: in vivo, Brachiaria decumbens
Procedure, shortened: as §1

smallflower flatsedge = assay: Test B flood test smallflower flatsedge; type: in vivo, Cyperus difformis; conditions: for Plant response rating, S. Flatsedge (0 to 10 scale, 0 is no effect, 10 is complete control) / S. Flatsedge plant response rating (0 to 10 scale, 0 is no effect, 10 is complete control): visual evaluation after twelve to sixteen days; for S. Flatsedge plant response rating (0 to 10 scale, 0 is no effect, 10 is complete control): under heading Pre-emergence
Procedure, shortened: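 Plants were grown to the 2-leaf stage before treatment with test chemical, then held in a greenhouse for twelve to sixteen days. Injury was visually rated against untreated controls on a 0–10 scale, where 0 is no effect and 10 is complete control.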

[1] = Postemergence, Rate 62 g/ha, scale 0 to 10, 0 is no effect, 10 is complete control
[2] = Preemergence, Rate 62 g/ha, scale 0 to 10 (0 no effect, 10 complete control)
[3] = Preemergence, Rate 125 g/ha, scale of 0 to 10 where 0 is no effect and 10 is complete control
[4] = Preemergence, Rate 250 g/ha, scale 0 to 10 (0 no effect, 10 complete control)
[5] = Preemergence, Rate 500 g/ha, scale of 0 to 10 where 0 is no effect and 10 is complete control
[6] = Postemergence, Rate 125 g/ha, scale of 0 to 10 where 0 is no effect and 10 is complete control
[7] = Postemergence, Rate 250 g/ha, scale of 0 to 10, 0 is no effect, 10 is complete control
[8] = Postemergence, Rate 500 g/ha, scale of 0 to 10 where 0 is no effect and 10 is complete control
[9] = Rate 62 g/ha, flood test species, Pre-emergence
[10] = Rate 125 g/ha, flood test species
[11] = Rate 250 g/ha, Pre-emergence (flood test species), scale 0 to 10, 0 is no effect, 10 is complete control
[12] = Preemergence, Rate 250 g/ha, scale 0 to 10, 0 is no effect, 10 is complete control
[13] = Preemergence, Rate 62 g/ha, scale of 0 to 10 where 0 is no effect and 10 is complete control
[14] = Preemergence, Rate 500 g/ha, scale 0 to 10, 0 is no effect, 10 is complete control
[15] = Rate 62 g/ha, Postemergence, scale 0 to 10 (0 no effect, 10 complete control)
[16] = Rate 125 g/ha, Postemergence, scale 0 to 10, 0 is no effect, 10 is complete control
[17] = Postemergence, Rate 250 g/ha, scale 0 to 10, 0 no effect, 10 complete control
[18] = Rate 500 g/ha, Pre-emergence, flood test species, scale 0 to 10 (0 no effect, 10 complete control)
[19] = Preemergence, Rate 125 g/ha, scale 0 to 10 (0 no effect, 10 complete control)
[20] = Preemergence, Rate 250 g/ha, scale of 0 to 10 where 0 is no effect and 10 is complete control
[21] = Preemergence, Rate 500 g/ha, scale 0 (no effect) to 10 (complete control)
[22] = Rate 125 g/ha, Postemergence, scale 0 to 10, 0 no effect, 10 complete control
[23] = Rate 500 g/ha, Postemergence, scale 0 to 10, 0 no effect, 10 complete control
[24] = Rate 1000 g/ha, Preemergence, scale 0 to 10 (0 no effect, 10 complete control)
[25] = Postemergence, Rate 1000 g/ha, scale 0 to 10 (0 no effect, 10 complete control)
[26] = Rate 62 g/ha, Postemergence, scale of 0 to 10 where 0 is no effect and 10 is complete control
[27] = Preemergence, Rate 62 g/ha, scale 0 to 10, 0 is no effect, 10 is complete control
[28] = Rate 500 g/ha, Postemergence, 0 to 10 scale (0 no effect, 10 complete control)
[29] = Preemergence, Rate 125 g/ha, 0 is no effect, 10 is complete control
[30] = Rate 125 g/ha, Postemergence, scale 0 to 10
[31] = Rate 500 g/ha, Postemergence, scale 0 to 10

## CC(C)N(C(=O)n1oc(=O)n(CC2CCCCO2)c1=O)c1ccc(F)cc1 (stereo not shown) [Compound 624]
bedstraw; [1]
  Plant response rating, Bedstraw: 0
bedstraw; [2]
  Bedstraw plant response rating: 0
bedstraw; [3]
  Bedstraw plant response rating: 0
bedstraw; [4]
  Plant response rating, Bedstraw: 0
bedstraw; [5]
  Plant response rating, Bedstraw: 3
blackgrass; [1]
  Plant response rating, Blackgrass: 4
blackgrass; [6]
  Plant response rating, Blackgrass: 5
blackgrass; [7]
  Blackgrass plant response rating: 8
blackgrass; [8]
  Plant response rating, Blackgrass: 9
blackgrass; [2]
  Blackgrass plant response rating: 1
blackgrass; [3]
  Blackgrass plant response rating: 8
blackgrass; [4]
  Plant response rating, Blackgrass: 8
blackgrass; [5]
  Plant response rating, Blackgrass: 9
Surinam grass; [1]
  Plant response rating, B. signalgrass: 4
Surinam grass; [6]
  Plant response rating, B. signalgrass: 7
Surinam grass; [7]
  B. signalgrass plant response rating: 7
Surinam grass; [8]
  Plant response rating, B. signalgrass: 8
Surinam grass; [2]
  B. signalgrass plant response rating: 3
Surinam grass; [3]
  B. signalgrass plant response rating: 6
Surinam grass; [4]
  Plant response rating, B. signalgrass: 6
Surinam grass; [5]
  Plant response rating, B. signalgrass: 8
Smallflower flatsedge; [9]
  Plant response rating, S. Flatsedge (0 to 10 scale, 0 is no effect, 10 is complete control): 0
Smallflower flatsedge; [10]
  S. Flatsedge plant response rating (0 to 10 scale, 0 is no effect, 10 is complete control): 0
Smallflower flatsedge; [11]
  S. Flatsedge plant response rating: 0
Smallflower flatsedge; Rate 500 g/ha, Pre-emergence section of Table B, 0 to 10 scale (0 no effect, 10 complete control)
  S. Flatsedge plant response rating: 0

## CC(C)N(C(=O)n1oc(=O)n(CCC[Si](C)(C)C)c1=O)c1ccc(F)cc1 [Compound 461]
bedstraw; [12]
  Bedstraw plant response rating: 0
blackgrass; Postemergence, Rate 250 g/ha, scale 0 to 10
  Blackgrass plant response rating: 0
blackgrass; [8]
  Blackgrass plant response rating: 3
blackgrass; [13]
  Plant response rating, Blackgrass: 0
blackgrass; [3]
  Plant response rating, Blackgrass: 0
blackgrass; [12]
  Blackgrass plant response rating: 0
blackgrass; [14]
  Blackgrass plant response rating: 0
blackgrass; [15]
  Blackgrass plant response rating: 0
blackgrass; [16]
  Blackgrass plant response rating: 0
Surinam grass; [17]
  B. signalgrass plant response rating: 0
Surinam grass; [8]
  B. signalgrass plant response rating: 0
Surinam grass; [13]
  Plant response rating, B. signalgrass: 0
Surinam grass; [3]
  Plant response rating, B. signalgrass: 0
Surinam grass; [12]
  B. signalgrass plant response rating: 0
Surinam grass; [14]
  B. signalgrass plant response rating: 0
Surinam grass; [15]
  B. signalgrass plant response rating: 0
Surinam grass; [16]
  B. signalgrass plant response rating: 0
Smallflower flatsedge; [9]
  Plant response rating, S. Flatsedge (0 to 10 scale, 0 is no effect, 10 is complete control): 0
Smallflower flatsedge; [10]
  S. Flatsedge plant response rating (0 to 10 scale, 0 is no effect, 10 is complete control): 0
Smallflower flatsedge; [11]
  S. Flatsedge plant response rating: 0
Smallflower flatsedge; [18]
  S. Flatsedge plant response rating: 0

## CC(C)N(C(=O)n1oc(=O)n(C2CCCCC2C(F)(F)F)c1=O)c1ccc(F)cc1 (stereo not shown) [Compound 99]
bedstraw; [1]
  Bedstraw plant response rating: 3
bedstraw; [17]
  Bedstraw plant response rating: 8
bedstraw; [2]
  Bedstraw plant response rating: 0
bedstraw; [19]
  Plant response rating, Bedstraw: 0
bedstraw; [20]
  Plant response rating, Bedstraw: 0
bedstraw; [21]
  Bedstraw plant response rating: 0
bedstraw; [22]
  Bedstraw plant response rating: 5
bedstraw; [23]
  Bedstraw plant response rating: 8
bedstraw; [24]
  Plant response rating, Bedstraw: 0
blackgrass; [6]
  Blackgrass plant response rating: 3
blackgrass; [17]
  Blackgrass plant response rating: 6
blackgrass; [25]
  Blackgrass plant response rating: 5
blackgrass; [2]
  Blackgrass plant response rating: 0
blackgrass; [19]
  Plant response rating, Blackgrass: 3
blackgrass; [20]
  Plant response rating, Blackgrass: 4
blackgrass; [21]
  Blackgrass plant response rating: 4
blackgrass; [26]
  Blackgrass plant response rating: 3
blackgrass; [23]
  Blackgrass plant response rating: 6
blackgrass; [24]
  Plant response rating, Blackgrass: 7
Surinam grass; [1]
  B. signalgrass plant response rating: 0
Surinam grass; [17]
  B. signalgrass plant response rating: 0
Surinam grass; [25]
  B. signalgrass plant response rating: 4
Surinam grass; [2]
  B. signalgrass plant response rating: 0
Surinam grass; [19]
  Plant response rating, B. signalgrass: 0
Surinam grass; [20]
  Plant response rating, B. signalgrass: 2
Surinam grass; [21]
  B. signalgrass plant response rating: 3
Surinam grass; [22]
  B. signalgrass plant response rating: 0
Surinam grass; Rate 500 g/ha, Postemergence, scale of 0 to 10 where 0 is no effect and 10 is complete control
  B. signalgrass plant response rating: 2
Surinam grass; [24]
  Plant response rating, B. signalgrass: 6
Smallflower flatsedge; Postemergence (flood test species), Rate 125 g/ha, scale of 0 to 10 where 0 is no effect and 10 is complete control
  S. Flatsedge plant response rating: 0
Smallflower flatsedge; [25]
  S. Flatsedge plant response rating: 3
Smallflower flatsedge; Rate 62 g/ha, Postemergence section, flood test species, scale of 0 to 10 where 0 is no effect and 10 is complete control
  S. Flatsedge plant response rating: 0
Smallflower flatsedge; Rate 250 g/ha, Postemergence (flood test), scale 0 to 10, 0 is no effect, 10 is complete control
  Plant response rating, S. Flatsedge: 0
Smallflower flatsedge; Rate 500 g/ha, listed under Postemergence (flood test species), scale 0 to 10, 0 no effect, 10 complete control
  S. Flatsedge plant response rating: 2

## CCc1ccccc1-n1c(=O)on(C(=O)N(c2ccc(F)cc2F)C(C)C)c1=O [Compound 45]
bedstraw; [1]
  Bedstraw plant response rating: 3
bedstraw; [27]
  Plant response rating, Bedstraw: 0
bedstraw; [19]
  Plant response rating, Bedstraw: 0
bedstraw; [20]
  Plant response rating, Bedstraw: 0
bedstraw; [21]
  Bedstraw plant response rating: 0
bedstraw; [22]
  Bedstraw plant response rating: 5
blackgrass; [1]
  Blackgrass plant response rating: 0
blackgrass; [17]
  Blackgrass plant response rating: 4
blackgrass; [27]
  Plant response rating, Blackgrass: 0
blackgrass; [19]
  Plant response rating, Blackgrass: 0
blackgrass; [20]
  Plant response rating, Blackgrass: 0
blackgrass; [21]
  Blackgrass plant response rating: 0
blackgrass; [22]
  Blackgrass plant response rating: 0
blackgrass; [28]
  Blackgrass plant response rating: 4
Surinam grass; [1]
  B. signalgrass plant response rating: 0
Surinam grass; [17]
  B. signalgrass plant response rating: 0
Surinam grass; [27]
  Plant response rating, B. signalgrass: 0
Surinam grass; [19]
  Plant response rating, B. signalgrass: 2
Surinam grass; [20]
  Plant response rating, B. signalgrass: 4
Surinam grass; [21]
  B. signalgrass plant response rating: 9
Surinam grass; [22]
  B. signalgrass plant response rating: 0
Surinam grass; [28]
  B. signalgrass plant response rating: 2
Smallflower flatsedge; [1]
  S. Flatsedge plant response rating: 0
Smallflower flatsedge; Rate 125 g/ha, Postemergence section (flood test species), scale 0 to 10, 0 no effect, 10 complete control
  S. Flatsedge plant response rating: 0
Smallflower flatsedge; flood test, listed under Postemergence, Rate 250 g/ha, scale 0 to 10, 0 no effect, 10 complete control
  S. Flatsedge plant response rating: 0

## C=CCn1c(=O)on(C(=O)N(c2ccc(F)cc2)C2CCC2)c1=O [Compound 194]
bedstraw; [13]
  Bedstraw plant response rating: 0
bedstraw; [29]
  Bedstraw plant response rating (0 to 10 scale): 0
bedstraw; [12]
  Bedstraw plant response rating: 0
bedstraw; [5]
  Plant response rating, Bedstraw: 10
bedstraw; [26]
  Bedstraw plant response rating: 0
bedstraw; [30]
  Bedstraw plant response rating: 0
bedstraw; Rate 250 g/ha, Postemergence
  Plant response rating (0 to 10; 0 is no effect, 10 is complete control), Bedstraw: 0
bedstraw; [31]
  Bedstraw plant response rating: 0
blackgrass; [13]
  Blackgrass plant response rating: 0
blackgrass; [29]
  Blackgrass plant response rating (0 to 10 scale): 2
blackgrass; [12]
  Blackgrass plant response rating: 3
blackgrass; [5]
  Plant response rating, Blackgrass: 8
blackgrass; [26]
  Blackgrass plant response rating: 0
blackgrass; [30]
  Blackgrass plant response rating: 0
blackgrass; Rate 250 g/ha, Postemergence
  Plant response rating (0 to 10; 0 is no effect, 10 is complete control), Blackgrass: 2
blackgrass; [31]
  Blackgrass plant response rating: 3
Surinam grass; [13]
  B. signalgrass plant response rating: 0
Surinam grass; [29]
  B. signalgrass plant response rating (0 to 10 scale): 0
Surinam grass; [12]
  B. signalgrass plant response rating: 0
Surinam grass; [5]
  Plant response rating, B. signalgrass: 3
Surinam grass; [26]
  B. signalgrass plant response rating: 0
Surinam grass; Rate 125 g/ha, Postemergence, scale 0 (no effect) to 10 (complete control)
  B. signalgrass plant response rating: 0
Surinam grass; Rate 250 g/ha, Postemergence, scale 0 to 10, 0 is no effect, 10 is complete control
  Plant response rating, B. signalgrass: 0
Surinam grass; [23]
  B. signalgrass plant response rating: 3
Smallflower flatsedge; Rate 62 g/ha, headed Pre-emergence (flood test species), scale 0 to 10 (0 no effect, 10 complete control)
  S. Flatsedge plant response rating: 0
Smallflower flatsedge; Rate 125 g/ha, Pre-emergence, flood test species, scale 0 to 10 where 0 is no effect and 10 is complete control
  S. Flatsedge plant response rating: 0
Smallflower flatsedge; Rate 250 g/ha, Pre-emergence, flood-test species, scale 0 to 10, 0 is no effect, 10 is complete control
  S. Flatsedge plant response rating: 0
Smallflower flatsedge; [18]
  S. Flatsedge plant response rating: 0
